According to US9951039B2, “Pyrimidines for treatment of bacterial infections” (The Hong Kong Polytechnic University, priority 2016, dated 2018):

Assays:
MRSA ATCC 43300 = test: Frequency of resistance (FOR) determination; format: cell-based, S. aureus; conditions: 8 folds of MIC, after 48 hours' incubation
Procedure: Procedure: MRSA ATCC 43300 cells were grown to late-exponential phase (1×10^9 CFU/mL) and spread on agars plates containing 1% DMSO or compound 14av_amine16 at 8 folds of MIC level. The plates were incubated for 48 hours to allow resistant mutants to grow. The spontaneous FOR was calculated as the number of resistance colonies divided by the number of CFUs originally plated. The assay was performed in triplicates.

G. mellonella larvae = test: Toxicity in G. mellonella larvae; format: in vivo, Galleria mellonella; conditions: 0, 50 and 100 mg/Kg in 50% PEG in saline, no MRSA inoculation, 48-hours period
Procedure: Procedure: Compound 14av_amine16 was tested in a Galleria mellonella model, which are an easy and inexpensive in vivo model with no ethical constraints for investigating antibacterial activity of a compound.^22 The G. mellonella model of S. aureus infection was used as previously described.^24 Briefly, 1 mL aliquots of overnight cultures of S. aureus 43300 were pelleted by centrifugation and washed with sterile PBS before being resuspended in 100 μL of PBS. G. mellonella larvae (N=10) that weighed 200-300 mg were then inoculated with 10 μL of S. aureus (2.5×10^6 CFU) into the last left proleg. Larvae were then treated with compounds at 1 h before bacterial inoculation. Treatments were performed in the same manner as infection, except that compounds were injected into the next left proleg moving toward the head of the larvae. […] Data was analyzed for statistical significance using a log rank and χ square test with 1 degree of freedom. Various concentrations of compound 14av_amine16 dissolved in 50% PEG in saline (0 mg/Kg, 50 mg/Kg and 100 mg/Kg) were injected into the hemocoel of last-instar G. mellonella larvae and survival was scored over time.
To examine the feasibility of using G. mellonella for compound 14av_amine16 toxicity study, the ability of compound 14av_amine16 to kill G. mellonella larvae was examined.

S. aureus FtsZ = target: T1, S. aureus FtsZ (Staphylococcus aureus, UniProt P0A031); test: Saturation Transfer Difference (STD) NMR study; format: binding; conditions: 298K, line broadening and STD effect
T1 construct: 6-histidine tag; made in house; host or cells: E. coli BL21(DE3)
T1 sequence (P0A031 1-390): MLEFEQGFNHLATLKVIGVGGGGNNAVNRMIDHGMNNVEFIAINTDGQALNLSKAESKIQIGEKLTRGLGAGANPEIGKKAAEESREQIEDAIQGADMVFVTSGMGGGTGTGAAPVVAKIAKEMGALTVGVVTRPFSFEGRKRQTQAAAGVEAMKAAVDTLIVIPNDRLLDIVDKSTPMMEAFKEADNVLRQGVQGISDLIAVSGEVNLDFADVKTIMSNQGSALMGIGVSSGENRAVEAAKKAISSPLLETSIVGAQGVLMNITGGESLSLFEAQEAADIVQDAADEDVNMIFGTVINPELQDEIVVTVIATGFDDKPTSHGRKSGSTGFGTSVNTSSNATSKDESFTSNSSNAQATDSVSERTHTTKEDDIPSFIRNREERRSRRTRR
Procedure: Procedure for expression and purification of S. aureus FtsZ protein: S. aureus FtsZ protein was prepared as previous reported.^16a In brief, E. coli BL21(DE3) cells, transformed with a pRSET-A-S vector carrying S. aureus FtsZ with a 6-histidine tag attached, were streaked on a nutrient agar plate containing 50 μg/mL ampicillin. After overnight incubation at 37° C., a single colony was inoculated into 5 mL of Luria-Bertani (LB) medium in the presence of 50 μg/mL ampicillin, which was then incubated at 37° C., with shaking at 250 rpm for 16 h. […]
Procedure STD NMR study: STD NMR experiments were performed on a Bruker Avance III 600 NMR spectrometer equipped with a QCI cryoprobe at 298K. Spectra were recorded with a carrier set at 0.5 ppm for on-resonance irradiation and 30 ppm for off-resonance irradiation. Control spectra were recorded under identical conditions without compound to test for artifacts. Selective protein saturation was accomplished using a train of 40 Gauss-shaped pulses (50 ms with 1 ms delay between pulses) for a total saturation time of 2 s at an experimentally determined optimal power (7.7625 W on the probe); a T1p spinlock filter (20-50 ms) was incorporated to suppress protein resonances. STD spectra were recorded using a minimum of 128 scans and 32 k points covering a spectral width of 6600 Hz. […]

CCC(CC)c1cc(CCN2CCCN(Cc3ccc(C(F)(F)F)cc3)CC2)nc(-c2ccncc2)n1 [Compound 14av_amine16, 1-(2-(6-(pentan-3-yl)-2-(pyridin-4-yl)pyrimidin-4-yl)ethyl)-4-(4-(trifluoromethyl)benzyl)-1,4-diazepane]
colonies on plates treated with compound (MRSA ATCC 43300): no colony was observed
ability to kill G. mellonella larvae (toxicity) (G. mellonella larvae): did not kill G. mellonella larvae
binding to FtsZ protein by STD NMR (S. aureus FtsZ): indeed bind to FtsZ protein
